# From patent US6703421B1, “Methods of using phenylmethylbenzoquinone and hydroquinone compounds for treatment of myocarditis, dilated cardiomyopathy and heart failure” (Daiichi Suntory Pharma Co., Ltd., priority 1999, dated 2004)
# System: NF-κB
# Test: NF-κB luciferase reporter assay in A549/NF-κBLuc cells
# Type: cell-based, human
# Conditions: A549/NF-κBLuc stimulated with IL-1β (1 ng/ml) or TNF-α (500 ng/ml) for 4 hours; dose-dependent; FIG. 1
# Description: Using lipofectamine (Lifetech Oriental K. K., Tokyo) according to the conventional method, human lung cancer cell line A549 cells (ATCC catalog no. CCL185), which are known to express hiNOS by cytokine stimulation, were co-transfected with pNFκB-Luc, which are plasmid controlled by a NF-κB binding consensus sequence, and pSV2neo (Clontech, U.S.A.), and then A549/NF-κBLuc, the cell that has stably introduced pNFκB-Luc, was selected by adding G418 sulfate (1 mg/ml, Lifetech Oriental K. K.) to the culture medium.
# The luciferase activity was measured using the Luciferase Assay System (Promega, U.S.A.).
row,Compound,luciferase activity regulated by activation of NF-κB
1,"COC1=C(OC)C(=O)C(Cc2ccc(CCC(=O)N3CCSCC3)cc2)=C(C)C1=O [Prod. Ex. 4, N-[3-[4-(5,6-Dimethoxy-3-methyl-1,4-benzoquinon-2-ylmethyl)phenyl]propionyl]thimorpholine]",suppresses luciferase activity

# Same assay, conditions: A549/NF-κBLuc, IL-1β (1 ng/ml) for 4 hours, luciferase activity; read-out: IC50 (μM) IL-1 stimulation
row,Compound,IC50 [µM]
1,"2-[5-Methylthieno[2,3-d]pyrimidine-4-yl]aminoindan-5-carboxylic Acid Morpholinamide [Prod. Ex. 221]",0.051

# Same assay, conditions: A549/NF-κBLuc, TNF-α (500 ng/ml) for 4 hours, luciferase activity; read-out: IC50 (μM) TNF stimulation
row,Compound,IC50 [µM]
1,"2-[5-Methylthieno[2,3-d]pyrimidine-4-yl]aminoindan-5-carboxylic Acid Morpholinamide [Prod. Ex. 221]",0.089

# Same assay, conditions: Homo sapiens; A549/NF-κBLuc, IL-1β (1 ng/ml) for 4 hours, luciferase activity; read-out: IC50 (μM) IL-1 stimulation
row,Compound,IC50 [µM]
1,"COC1=C(OC)C(=O)C(Cc2cccc(C(=O)N3CCOCC3)c2)=C(C)C1=O [Prod. Ex. 44, N-[3-(5,6-Dimothoxy-3-methyl-1,4-benzoquinon-2-ylmethyl)benzoyl]morpholine]",39
2,"COC1=C(OC)C(=O)C(Cc2ccc(CCC(=O)N3CCSCC3)cc2)=C(C)C1=O [Prod. Ex. 4, N-[3-[4-(5,6-Dimethoxy-3-methyl-1,4-benzoquinon-2-ylmethyl)phenyl]propionyl]thimorpholine]",10
3,"COC1=C(OC)C(=O)C(Cc2cccc(CCCC(=O)NC(C)C)c2)=C(C)C1=O [Prod. Ex. 66, N-[4-[3-(5,6-Dimethoxy-3-methyl-1,4-benzoquinon-2-ylmethyl)phenyl]butanoyl]isopropylamine]",3
4,"CC1=C(C)C(=O)C(Cc2ccc(CCC(=O)N3CCCCC3)cc2)=C(C)C1=O [Prod. Ex. 47, N-[3-[4-(3,5,6-Trimethyl-1,4-benzoquinon-2-ylmethyl)phenyl]propionyl]piperidine]",21
5,COC1=C(OC)C(=O)C(Cc2ccc(CCC(=O)N[C@@H](C)c3ccccc3)cc2)=C(C)C1=O [Prod. Ex. 120],2
6,COC1=C(OC)C(=O)C(Cc2ccc(CCC(=O)N3CCN(c4ccccc4OC)CC3)cc2)=C(C)C1=O [Prod. Ex. 163],19
7,COC1=C(OC)C(=O)C(Cc2ccc(CCC(=O)NC(C)CO)cc2)=C(C)C1=O (stereo not drawn) [Prod. Ex. 104],12
8,"COC1=C(OC)C(=O)C(Cc2cccc(CC(=O)N3CCCCC3)c2)=C(C)C1=O [Prod. Ex. 58, N-[3-(5,6-Dimethoxy-3-methyl-1,4-benzoquinon-2-ylmethyl)phenylacetyl]piperidine]",13
9,COC1=C(OC)C(=O)C(Cc2ccc(CCC(=O)N3CC(C)CC(C)C3)cc2)=C(C)C1=O (stereo not drawn) [Prod. Ex. 137],7
10,"COC1=C(OC)C(=O)C(Cc2cccc(/C=C/C(=O)NC(C)C)c2)=C(C)C1=O [Prod. Ex. 39, N-[3-[3-(5,6-Dimethoxy-3-methyl-1,4-benzoquinon-2-ylmethyl)phenyl]acryloyl]isopropylamine]",39
11,"Cc1csc2ncnc(NC3Cc4ccc(Oc5ccccc5)cc4C3)c12 (stereo not drawn) [Prod. Ex. 214, 4-(5-Phenoxyindan-2-yl)amino-5-methylthieno[2,3-d]pyrimidine]",0.15
12,"COC1=C(OC)C(=O)C(Cc2ccc(CC(=O)N3CCCCC3)cc2)=C(C)C1=O [Prod. Ex. 54, N-[4-(5,6-Dimethoxy-3-methyl-1,4-benzoquinon-2-ylmethyl)phenylacetyl]piperidine]",5
13,"CC1=C(C)C(=O)C(Cc2cccc(CCC(=O)NC(C)C)c2)=C(C)C1=O [Prod. Ex. 49, N-[3-[3-(3,5,6-Trimethyl-1,4-benzoquinon-2-ylmethyl)phenyl]propionyl]isopropylamine]",28
14,COC1=C(OC)C(=O)C(Cc2ccc(CCC(=O)N3CCC(O)(c4ccc(Cl)cc4)CC3)cc2)=C(C)C1=O [Prod. Ex. 154],28
15,COC[C@H]1CCCN1C(=O)CCc1ccc(CC2=C(C)C(=O)C(OC)=C(OC)C2=O)cc1 [Prod. Ex. 76],14
16,CC1=C(C)C(=O)C(Cc2ccc(CCC(=O)NC(C)C)cc2)=C(C)C1=O [Prod. Ex. 46],17
17,"COC1=C(OC)C(=O)C(Cc2cccc(CC(=O)N3CCOCC3)c2)=C(C)C1=O [Prod. Ex. 60, N-[3-(5,6-Dimethoxy-3-methyl-1,4-benzoquinon-2-ylmethyl)phenylacetyl]morpholine]",18
18,"COC1=C(OC)C(=O)C(Cc2ccc(CC(=O)N3CCSCC3)cc2)=C(C)C1=O [Prod. Ex. 55, N-[4-(5,6-Dimethoxy-3-methyl-1,4-benzoquinon-2-ylmethyl)phenylacetyl]thiomorpholine]",7
19,"COC1=C(OC)C(=O)C(Cc2cccc(CCC(=O)N3CCOCC3)c2)=C(C)C1=O [Prod. Ex. 34, N-[3-[3-(5,6-Dimethoxy-3-methyl-1,4-benzoquinon-2-ylmethyl)phenyl]propionyl]morpholine]",29
20,COC1=C(OC)C(=O)C(Cc2ccc(CCC(=O)N3CCCC(C)C3)cc2)=C(C)C1=O (stereo not drawn) [Prod. Ex. 85],5
21,COC1=C(OC)C(=O)C(Cc2ccc(CCC(=O)NC(C)CC(C)C)cc2)=C(C)C1=O (stereo not drawn) [Prod. Ex. 128],19
22,COC1=C(OC)C(=O)C(Cc2ccc(CCC(=O)Nc3ccccc3O)cc2)=C(C)C1=O [Prod. Ex. 96],17
23,"COC1=C(OC)C(=O)C(Cc2cccc(/C=C/C(=O)N3CCCCC3)c2)=C(C)C1=O [Prod. Ex. 37, N-[3-[3-(5,6-Dimethoxy-3-methyl-1,4-benzoquinon-2-ylmethyl)phenyl]acryloyl]piperidine]",49
24,CCCCCc1ccc(NC(=O)CCc2ccc(CC3=C(C)C(=O)C(OC)=C(OC)C3=O)cc2)cc1 [Prod. Ex. 113],16
25,"COC1=C(OC)C(=O)C(Cc2cccc(CC(=O)NC(C)C)c2)=C(C)C1=O [Prod. Ex. 61, N-[3-(5,6-Dimethoxy-3-methyl-1,4-benzoquinon-2-ylmethyl)phenylacetyl]isopropylamine]",24
26,COC1=C(OC)C(=O)C(Cc2ccc(CCC(=O)N[C@H](C)c3ccccc3)cc2)=C(C)C1=O [Prod. Ex. 121],7
27,"COC1=C(OC)C(=O)C(Cc2ccccc2CCC(=O)N2CCSCC2)=C(C)C1=O [Prod. Ex. 72, N-[3-[2-(5,6-dimethoxy-3-methyl-1,4-benzoquinon-2-ylmethyl)phenyl]propionyl]thiomorpholine]",42

# Same assay, conditions: Homo sapiens; A549/NF-κBLuc, TNF-α (500 ng/ml) for 4 hours, luciferase activity; read-out: IC50 (μM) TNF stimulation
row,Compound,IC50 [µM]
1,"COC1=C(OC)C(=O)C(Cc2ccc(CCC(=O)N3CCSCC3)cc2)=C(C)C1=O [Prod. Ex. 4, N-[3-[4-(5,6-Dimethoxy-3-methyl-1,4-benzoquinon-2-ylmethyl)phenyl]propionyl]thimorpholine]",10

# System: EMC virus-inoculated DBA/2 mice (viral myocarditis)
# Test: Survival rate in murine viral myocarditis model
# Type: in vivo, mouse
# Conditions: 30 mg/kg intraperitoneally daily for 14 days, 0.5% gum arabic; FIG. 2
# Description: Viral myocarditis mice were prepared using the procedure described below in accordance with a known method (Shioi T. et al. (1997) J. Mol. Cell. Cardiol., 29, 2327-2334). Variant M (acquired from the American Type Culture Collection) was used for the EMC virus for inoculation and prepared to 100 pfu/ml in Eagle's MEM medium (Nissui Pharmaceutical). Four-week-old DBA/2 male mice were divided into two groups, and intraperitoneally inoculated with EMC virus at 10 pfu/animal. Test compound was then administered intraperitoneally and daily for 14 days under the following conditions to each group starting 3 hours after inoculation.
# The test compound was used after dissolving in 0.5% aqueous gum arabic solution (3 mg/ml). In the present example, the compound of Production Example 4 was used in the test as the NF-κB inhibitor.
# Test group (n=10): Administration of NF-κB inhibitor (Production Example 4) at 30 mg/kg body weight Control group (n=10): 0.5% aqueous gum arabic solution
# The experiment was conducted in the following three groups using the same method as Example 2 and the compound of Production Example 7 for the NF-κB inhibitor. The test compound was used after dissolving in 10% aqueous dimethylsulfoxide solution (DMSO) (test group 1: 0.3 mg/ml, test group 2: 3 mg/ml). The survival rates were tested for the presence of a significant difference according to the Kaplan-Meier method, and statistical significance was defined as p<0.05.
# Test group 1 (n=21): Administration of NF-κB inhibitor (Production Example 7) at 3 mg/kg body weight
# Test group 2 (n=21): Administration of NF-κB inhibitor (Production Example 7) at 30 mg/kg body weight
# Four-week-old DBA/2 male mice were inoculated with EMC virus using the same method as Example 2, and the test compound was administered orally and daily for 14 days under the following conditions to each group starting 2 hours after inoculation.
# The test compound was used after dissolving in 10% aqueous sulfobutylcyclodextrin solution (3 mg/ml). In the present example, the compound of Production Example 44 was used in the test as the NF-κB inhibitor.
# Test group (n=20): Administration of NF-κB inhibitor (Production Example 44) at 30 mg/kg body weight
row,Compound,survival rate
1,"COC1=C(OC)C(=O)C(Cc2ccc(CCC(=O)N3CCSCC3)cc2)=C(C)C1=O [Prod. Ex. 4, N-[3-[4-(5,6-Dimethoxy-3-methyl-1,4-benzoquinon-2-ylmethyl)phenyl]propionyl]thimorpholine]",improves the survival rate

# Same assay, conditions: 30 mg/kg orally daily for 14 days, 10% sulfobutylcyclodextrin; FIG. 4
row,Compound,survival rate
1,"COC1=C(OC)C(=O)C(Cc2cccc(C(=O)N3CCOCC3)c2)=C(C)C1=O [Prod. Ex. 44, N-[3-(5,6-Dimothoxy-3-methyl-1,4-benzoquinon-2-ylmethyl)benzoyl]morpholine]",improves survival rate
